Experimental findings from a melting point compilation (Tetko et al.; mined from patent text by program, amines drawn as free bases though some values may be those of a salt) are described below.

The molecule `CC(C)(C)C(O)C(C(CC#N)c1ccccc1)n1ccnc1` (centres undefined) returned a melting point of 212 to 228 °C.
The value for `O=c1c2c(c3cccnc3n1-c1ccccc1)OCC(O)C2` (centres undefined) was 296 to 298 °C.
The value for `COc1nc2ccccc2nc1NC(=O)N1CCN(c2cccc(Br)c2)CC1` was 148 to 150 °C; that for `COc1cccc(OC)c1CNC(=O)c1ccc2c(c1)C(=NNc1ccc(S(N)(=O)=O)cc1)C(=O)N2` was > 250 °C.
The value for `CC1(C)SC(=O)N(Cc2ccccc2[N+](=O)[O-])C1=O` was 72.3 to 73.2 °C; that for `O=C(O)Cc1ccc(-c2ccc(C(CC3CCOCC3)c3ccc(S(=O)(=O)C4CC4)cc3)[nH]2)nc1` (centres undefined) was 124 to 127 °C.
As for `COc1cc(C=CC(COc2ccccc2)=NO)ccc1O`, the melting point is 155 to 158 °C.
The value for `CCCCCCCCCCCCS(=O)c1c(O)cc(C)oc1=O` (centres undefined) was 80 °C; that for `COC(=O)c1ccc(C#Cc2ccccc2)cc1` was 114 °C; that for `CCOC(=O)c1c(C(F)(F)F)nc(C(F)(F)Cl)c(C(=O)OC)c1N` was 69 to 70 °C.
Under `CCOC(=O)/C=C(\c1cccc(C(F)(F)F)c1)c1ccc(OC)c(OC)c1` stands 72 to 74 °C; under `CCCCCCOc1ccccc1C(=O)CCCCC(=O)O`, 64 to 65 °C; under `CCCCCCCOc1ccc(-c2ccc(N=Nc3ccc([N+](=O)[O-])cc3)cc2)cc1`, 147 to 148 °C.
As to `CCCCCC(O)c1cccc(OCc2cccc(CC(=O)O)c2)c1` (centres undefined), the melting point lay within 111 to 113 °C.
The molecule `O=C1C(=O)c2ccccc2C2=C1SCC(CN1CCC(O)CC1)O2` (centres undefined) returned a melting point of 98 to 100 °C.
Take `O=[N+]([O-])c1cc(C(F)(F)F)c(Cl)c([N+](=O)[O-])c1NC1CC1`: the melting point is 86 to 87 °C.
`CN(C)c1ncc(-c2cccnc2)cn1` had a melting point of 295 °C.
The value for `Cc1cc(Nc2nccc(-c3sc(N)nc3C)n2)ccc1N1CCCCC1` was 221 to 223 °C.
Molecule `O=S1(=O)OC[C@H]2CCCN21` yielded a melting point of 45 to 46 °C.
The molecule `COc1ccc(C(=O)C2C(=O)c3cccc(NC(=O)Oc4ccccc4)c3C2=O)cc1` (centres undefined) yielded a melting point of 256 to 258 °C.
The value for `CNc1nc(-c2cccc(NC(=O)c3cccc(Cl)c3)c2)c2cc(OC)c(OC)cc2n1` was 124 to 126 °C; that for `COc1ccc2c(c1Cl)S(=O)(=O)c1ccccc1N2C` was 244 °C; that for `O=C(CCl)CC(=O)Nc1ccccc1` was 142 to 143 °C.
The molecule `COc1ccc(-c2nc(Cl)n(C)c2-c2ccc(OC)cc2)cc1` had a melting point of 132 to 133 °C.
The value for `CC1=CC(OC(=O)c2ccc(O)cc2)C(O)C(C)(C)CC1=O` (centres undefined) was 123 to 125 °C; that for `O=C1c2ccc([N+](=O)[O-])c3c([N+](=O)[O-])ccc(c23)C(=O)N1O` was 290 to 291 °C.
Under `O=c1[nH]c(N[N+](=O)[O-])ncc1Cc1cccnc1` stands 214 to 216 °C; under `CCCn1cc(C(=O)NCc2ccc(Cl)cc2)c(=O)c2cc(C#CCO)ccc21`, 183 to 184 °C; under `O=C1c2ccccc2C(=O)N1CCSCc1ccc(C2OCCO2)o1`, 83 to 85 °C.
`CCOC(=O)C1=CN(CC)c2cc(C#N)c(F)cc2C1` gave a melting point of 205 to 207 °C.
Under `Cc1cc(=O)n2cccc(OCc3ccccc3Cl)c2n1` stands 166 to 168 °C; under `CC(=O)N(c1ccc(F)c(Cl)c1)c1ncnc2cc(OCCCN3CCOCC3)c([N+](=O)[O-])cc12`, 154 °C; under `CC1(C)CC(=NO)c2cc(OCc3ccccc3)ccc2O1`, 105 to 108 °C.
Molecule `N#Cc1nc(-c2ccc(O)cc2)cs1` returned a melting point of 186 to 197 °C.
Under `O=S(=O)(F)c1ccc2ccccc2c1` stands 85 to 86 °C; under `Nc1cccc(Oc2ncccc2C(=O)NCc2ccccc2Cl)c1`, 101 to 103 °C; under `CCC(C(=O)OC1C=CC=CO1)C(=O)OC1C=CC=CO1` (centres undefined), 90 to 92 °C.
Consider `O=C(O)CCc1ccccc1OCCC(c1ccccc1)(c1ccccc1)c1ccccc1`, for which the melting point fell in the range of 118 to 120 °C.
For the molecule `O=C1N(Cc2cccnc2C(F)(F)F)c2ccccc2C12COc1cc3c(cc12)OCCO3` (centres undefined), the melting point lay within 219 to 220 °C.
Take `CCOC(=O)CCCCOc1cccc(O)c1C=O`: the melting point is 32 to 33 °C.
Under `CC1=CC(=NO)CC(c2cccc(Cl)c2)N1` (centres undefined) stands 88 °C; under `O=C(Cc1ccccc1I)Nc1ccccc1I`, 160 to 163 °C; under `COc1c(C(c2ccccc2)c2ccccc2)ccc2ccccc12`, 119 to 121 °C.
Turning to `COC(=O)CNC(=O)C(CS)NC(=O)CNC(=O)CS` (centres undefined), the melting point was in the range of 149 to 151 °C.
`NC(=O)c1c(-c2cccc(F)c2)c(Br)n2c1CNCC2`: the melting point lay in the range of 216 to 218 °C.
`C=CCONC(=O)c1nc(-c2ccc(F)cc2)cc(N)c1Cl`: the melting point fell in the range of 182 to 185 °C.
Under `COc1ccc(NC(=O)c2ccc(F)cc2)cc1` stands 171 to 172 °C; under `CC(=O)c1ccc(NS(C)(=O)=O)c(Oc2ccc(F)cc2)c1`, 95 to 96 °C; under `Cc1oc(-c2ccccc2)nc1COc1ccc(Cn2cc(CCC(=O)O)c(C(C)C)n2)cc1`, 97 to 98 °C.
Under `O=C(Cc1ccc(F)cc1C(=O)O)Nc1cccc(/C=C/c2nc(C3CCC3)cs2)c1` stands 211 to 212 °C; under `CC1(C)CN(CC(C)(O)c2ccc3c(c2)OCO3)c2nc(-c3ccncn3)cc(=O)n2C1` (centres undefined), 194 to 196 °C; under `CCCCOCC(O)CN1C(=O)NC(=O)C(CC)(c2ccccc2)C1=O` (centres undefined), 92 °C.
`COc1ccc(Br)cc1N1CCCC1` came in with a melting point of 47 to 48 °C.
Under `CCOC(=O)c1ccc(N2CCN(Cc3cnc4c(c3)NC(=O)[C@@H]3CCCN43)CC2)cc1` stands 242 °C; under `COc1cc(/C=C/CO)cc(OC)c1OCc1ccccc1`, 72 to 73 °C; under `Cc1ccc(C)c2c1C(=O)N(c1ccc(F)cc1F)C2=O`, 212 °C.
Under `Cc1cccc(NC(=O)NCC(=O)N(c2ccccc2)c2cccc(Cl)c2)c1` stands 184 °C; under `CC(COS(C)(=O)=O)N1c2ccc(Cl)cc2Sc2ccc(C#N)cc21` (racemic), 132 °C.
`CC1(O)CCC2C3CCC45OC4(C)C(O)=C(C#N)CC5(C)C3CCC21C` (centres undefined) registered a melting point of 170 to 171 °C.
The value for `CCCC=COC1OC(CO)C(O)C(O)C1NC(C)=O` (centres undefined) was 146 to 148 °C; that for `CCc1nc2c(cnn2CC)c(NC2CCOCC2)c1CNC(=O)c1cccc(C(=O)NCc2ccc(OC)c(-c3cccc(CN4CCCNCC4)c3)c2)c1` was 143 to 147 °C; that for `C=CC[C@H]1CCC[C@H](N2C(=O)c3ccccc3C2=O)C(=O)N1CC(=O)OC` was 107 to 109 °C.
In the case of `CN(O)C(=O)C(=Cc1ccc2ccccc2c1)c1ccc(F)cc1`, the melting point fell in the range of 132 to 134 °C.
The value for `CCCn1nc2c(N)nc3ccccc3c2c1CCCCO` was 135 to 136 °C; that for `OC(c1cccc(Br)c1)C1c2ccccc2CCc2ccccc21` (centres undefined) was 93.9 °C.
The value for `CCN(CC)CCCC(=O)c1ccc2c(c1)Cc1cc(C(=O)CCCN(CC)CC)ccc1O2` was 63 to 65 °C; that for `COC(=O)N(C)CCc1ccc2[nH]cc(S(=O)(=O)c3ccccc3)c2c1` was 195 to 197 °C.
Regarding `CCN1CCN(c2ccc(C(=O)NCCCCCCCCCCCCO)cn2)CC1`, the melting point was in the range of 108 to 110 °C.
Molecule `NC(=O)CC(=S)N1CCCC1` displayed a melting point of 110 to 120 °C.
The value for `COc1ccc2[nH]c3cc(-c4ccccc4C#N)c4c(c3c2c1)C(=O)NC4=O` was 348 to 350 °C; that for `Cc1cc(NC(=O)Oc2ccc([N+](=O)[O-])cc2)cc(C(F)(F)F)c1` was 136 to 138 °C.
`COC(=O)CCc1cc(C(=O)c2cccc(C(=O)OC)n2)ccc1OCCCC/C=C/c1ccc(OC)cc1` returned a melting point of 80 to 82 °C.
The value for `CCCCOc1cc(C(=O)NCCN(CC)CC)cc(S(N)(=O)=O)c1Cc1ccccc1` was 163 °C.
In turn, `CNC(=O)NC(=O)/C(=C/C(C)C)c1ccc(Cl)c(Cl)c1` registered a melting point of 177 to 178 °C.
The value for `COC(=O)N1C(=O)NC(C)=C(C(=O)OC(C)C)C1c1cccc(Cl)c1Cl` (centres undefined) was 208 to 210 °C; that for `Cc1ccccc1-c1ccc(C(=O)O)cc1C` was 140 to 143 °C; that for `Cc1cccc(C)c1CNc1cc(S(=O)(=O)N(C)C)cc2c1nc(C)n2C` was 237 to 238 °C.
In the case of `N#Cc1ccc(C(=O)Nc2nc(-c3ccco3)c(C(=O)C3CCOCC3)s2)o1`, the melting point was in the range of 222 to 223 °C.
`FC(F)(F)c1nc(-c2ncn3c2nc(N2CCOCC2)c2ccccc23)no1` showed a melting point of 182 to 186 °C.
Consider `O=C(NN1CCCCC1)c1ccc(-c2ccc(Cl)cc2)c(-c2ccc(Cl)cc2Cl)c1`, for which the melting point was 182 °C.
The value for `CCOc1cc2c(cc1OC)CCN(c1nc(N)c3cc(OC)c(OC)cc3n1)C2` was 258 to 260 °C.
The value for `Cc1cc2c(=O)n(CCN3CCC(Nc4nc5ccccc5n4Cc4ccc(F)cc4)CC3)c(=S)[nH]c2s1` was 236 °C; that for `O=C(Nc1ccc(-n2nc(C(F)(F)F)cc2C(F)(F)F)cc1)c1ccc(F)c(C(F)(F)F)c1` was 142 to 144 °C.
The value for `O=C(Nc1cc(Cl)ccc1N1CCCCC1)c1ccncc1` was 141 to 143 °C; that for `OC(CCc1ccccc1)c1cnc2sc3c(n12)CCCC3` (centres undefined) was 152 to 153 °C.
`O=C(ON1C(=O)CCC1=O)c1ccccn1` displayed a melting point of 174 to 175 °C.
The value for `COC(=O)COc1ccc(C(C)=O)c(OCCCBr)c1` was 67 to 70 °C; that for `CC(C)(O)CCn1c2ccccc2c2cc(NC(=O)c3ccccc3C(F)(F)F)ccc21` was 188 to 189 °C; that for `COc1cc(C(=O)N2Cc3ccc(C(=O)NCCC(c4ccccc4)c4ccccc4)n3Cc3ccccc32)ccc1-c1ccccc1C` was 214 °C.

In general, melting point refers to the temperature of the solid-liquid transition.
